Target: mouse brain RyR2 (Mus musculus, UniProt E9Q401)
Experiment: Single-channel current recordings of RyR2 incorporated in artificial lipid bilayer

mouse brain RyR2, sequence (E9Q401 whole entry): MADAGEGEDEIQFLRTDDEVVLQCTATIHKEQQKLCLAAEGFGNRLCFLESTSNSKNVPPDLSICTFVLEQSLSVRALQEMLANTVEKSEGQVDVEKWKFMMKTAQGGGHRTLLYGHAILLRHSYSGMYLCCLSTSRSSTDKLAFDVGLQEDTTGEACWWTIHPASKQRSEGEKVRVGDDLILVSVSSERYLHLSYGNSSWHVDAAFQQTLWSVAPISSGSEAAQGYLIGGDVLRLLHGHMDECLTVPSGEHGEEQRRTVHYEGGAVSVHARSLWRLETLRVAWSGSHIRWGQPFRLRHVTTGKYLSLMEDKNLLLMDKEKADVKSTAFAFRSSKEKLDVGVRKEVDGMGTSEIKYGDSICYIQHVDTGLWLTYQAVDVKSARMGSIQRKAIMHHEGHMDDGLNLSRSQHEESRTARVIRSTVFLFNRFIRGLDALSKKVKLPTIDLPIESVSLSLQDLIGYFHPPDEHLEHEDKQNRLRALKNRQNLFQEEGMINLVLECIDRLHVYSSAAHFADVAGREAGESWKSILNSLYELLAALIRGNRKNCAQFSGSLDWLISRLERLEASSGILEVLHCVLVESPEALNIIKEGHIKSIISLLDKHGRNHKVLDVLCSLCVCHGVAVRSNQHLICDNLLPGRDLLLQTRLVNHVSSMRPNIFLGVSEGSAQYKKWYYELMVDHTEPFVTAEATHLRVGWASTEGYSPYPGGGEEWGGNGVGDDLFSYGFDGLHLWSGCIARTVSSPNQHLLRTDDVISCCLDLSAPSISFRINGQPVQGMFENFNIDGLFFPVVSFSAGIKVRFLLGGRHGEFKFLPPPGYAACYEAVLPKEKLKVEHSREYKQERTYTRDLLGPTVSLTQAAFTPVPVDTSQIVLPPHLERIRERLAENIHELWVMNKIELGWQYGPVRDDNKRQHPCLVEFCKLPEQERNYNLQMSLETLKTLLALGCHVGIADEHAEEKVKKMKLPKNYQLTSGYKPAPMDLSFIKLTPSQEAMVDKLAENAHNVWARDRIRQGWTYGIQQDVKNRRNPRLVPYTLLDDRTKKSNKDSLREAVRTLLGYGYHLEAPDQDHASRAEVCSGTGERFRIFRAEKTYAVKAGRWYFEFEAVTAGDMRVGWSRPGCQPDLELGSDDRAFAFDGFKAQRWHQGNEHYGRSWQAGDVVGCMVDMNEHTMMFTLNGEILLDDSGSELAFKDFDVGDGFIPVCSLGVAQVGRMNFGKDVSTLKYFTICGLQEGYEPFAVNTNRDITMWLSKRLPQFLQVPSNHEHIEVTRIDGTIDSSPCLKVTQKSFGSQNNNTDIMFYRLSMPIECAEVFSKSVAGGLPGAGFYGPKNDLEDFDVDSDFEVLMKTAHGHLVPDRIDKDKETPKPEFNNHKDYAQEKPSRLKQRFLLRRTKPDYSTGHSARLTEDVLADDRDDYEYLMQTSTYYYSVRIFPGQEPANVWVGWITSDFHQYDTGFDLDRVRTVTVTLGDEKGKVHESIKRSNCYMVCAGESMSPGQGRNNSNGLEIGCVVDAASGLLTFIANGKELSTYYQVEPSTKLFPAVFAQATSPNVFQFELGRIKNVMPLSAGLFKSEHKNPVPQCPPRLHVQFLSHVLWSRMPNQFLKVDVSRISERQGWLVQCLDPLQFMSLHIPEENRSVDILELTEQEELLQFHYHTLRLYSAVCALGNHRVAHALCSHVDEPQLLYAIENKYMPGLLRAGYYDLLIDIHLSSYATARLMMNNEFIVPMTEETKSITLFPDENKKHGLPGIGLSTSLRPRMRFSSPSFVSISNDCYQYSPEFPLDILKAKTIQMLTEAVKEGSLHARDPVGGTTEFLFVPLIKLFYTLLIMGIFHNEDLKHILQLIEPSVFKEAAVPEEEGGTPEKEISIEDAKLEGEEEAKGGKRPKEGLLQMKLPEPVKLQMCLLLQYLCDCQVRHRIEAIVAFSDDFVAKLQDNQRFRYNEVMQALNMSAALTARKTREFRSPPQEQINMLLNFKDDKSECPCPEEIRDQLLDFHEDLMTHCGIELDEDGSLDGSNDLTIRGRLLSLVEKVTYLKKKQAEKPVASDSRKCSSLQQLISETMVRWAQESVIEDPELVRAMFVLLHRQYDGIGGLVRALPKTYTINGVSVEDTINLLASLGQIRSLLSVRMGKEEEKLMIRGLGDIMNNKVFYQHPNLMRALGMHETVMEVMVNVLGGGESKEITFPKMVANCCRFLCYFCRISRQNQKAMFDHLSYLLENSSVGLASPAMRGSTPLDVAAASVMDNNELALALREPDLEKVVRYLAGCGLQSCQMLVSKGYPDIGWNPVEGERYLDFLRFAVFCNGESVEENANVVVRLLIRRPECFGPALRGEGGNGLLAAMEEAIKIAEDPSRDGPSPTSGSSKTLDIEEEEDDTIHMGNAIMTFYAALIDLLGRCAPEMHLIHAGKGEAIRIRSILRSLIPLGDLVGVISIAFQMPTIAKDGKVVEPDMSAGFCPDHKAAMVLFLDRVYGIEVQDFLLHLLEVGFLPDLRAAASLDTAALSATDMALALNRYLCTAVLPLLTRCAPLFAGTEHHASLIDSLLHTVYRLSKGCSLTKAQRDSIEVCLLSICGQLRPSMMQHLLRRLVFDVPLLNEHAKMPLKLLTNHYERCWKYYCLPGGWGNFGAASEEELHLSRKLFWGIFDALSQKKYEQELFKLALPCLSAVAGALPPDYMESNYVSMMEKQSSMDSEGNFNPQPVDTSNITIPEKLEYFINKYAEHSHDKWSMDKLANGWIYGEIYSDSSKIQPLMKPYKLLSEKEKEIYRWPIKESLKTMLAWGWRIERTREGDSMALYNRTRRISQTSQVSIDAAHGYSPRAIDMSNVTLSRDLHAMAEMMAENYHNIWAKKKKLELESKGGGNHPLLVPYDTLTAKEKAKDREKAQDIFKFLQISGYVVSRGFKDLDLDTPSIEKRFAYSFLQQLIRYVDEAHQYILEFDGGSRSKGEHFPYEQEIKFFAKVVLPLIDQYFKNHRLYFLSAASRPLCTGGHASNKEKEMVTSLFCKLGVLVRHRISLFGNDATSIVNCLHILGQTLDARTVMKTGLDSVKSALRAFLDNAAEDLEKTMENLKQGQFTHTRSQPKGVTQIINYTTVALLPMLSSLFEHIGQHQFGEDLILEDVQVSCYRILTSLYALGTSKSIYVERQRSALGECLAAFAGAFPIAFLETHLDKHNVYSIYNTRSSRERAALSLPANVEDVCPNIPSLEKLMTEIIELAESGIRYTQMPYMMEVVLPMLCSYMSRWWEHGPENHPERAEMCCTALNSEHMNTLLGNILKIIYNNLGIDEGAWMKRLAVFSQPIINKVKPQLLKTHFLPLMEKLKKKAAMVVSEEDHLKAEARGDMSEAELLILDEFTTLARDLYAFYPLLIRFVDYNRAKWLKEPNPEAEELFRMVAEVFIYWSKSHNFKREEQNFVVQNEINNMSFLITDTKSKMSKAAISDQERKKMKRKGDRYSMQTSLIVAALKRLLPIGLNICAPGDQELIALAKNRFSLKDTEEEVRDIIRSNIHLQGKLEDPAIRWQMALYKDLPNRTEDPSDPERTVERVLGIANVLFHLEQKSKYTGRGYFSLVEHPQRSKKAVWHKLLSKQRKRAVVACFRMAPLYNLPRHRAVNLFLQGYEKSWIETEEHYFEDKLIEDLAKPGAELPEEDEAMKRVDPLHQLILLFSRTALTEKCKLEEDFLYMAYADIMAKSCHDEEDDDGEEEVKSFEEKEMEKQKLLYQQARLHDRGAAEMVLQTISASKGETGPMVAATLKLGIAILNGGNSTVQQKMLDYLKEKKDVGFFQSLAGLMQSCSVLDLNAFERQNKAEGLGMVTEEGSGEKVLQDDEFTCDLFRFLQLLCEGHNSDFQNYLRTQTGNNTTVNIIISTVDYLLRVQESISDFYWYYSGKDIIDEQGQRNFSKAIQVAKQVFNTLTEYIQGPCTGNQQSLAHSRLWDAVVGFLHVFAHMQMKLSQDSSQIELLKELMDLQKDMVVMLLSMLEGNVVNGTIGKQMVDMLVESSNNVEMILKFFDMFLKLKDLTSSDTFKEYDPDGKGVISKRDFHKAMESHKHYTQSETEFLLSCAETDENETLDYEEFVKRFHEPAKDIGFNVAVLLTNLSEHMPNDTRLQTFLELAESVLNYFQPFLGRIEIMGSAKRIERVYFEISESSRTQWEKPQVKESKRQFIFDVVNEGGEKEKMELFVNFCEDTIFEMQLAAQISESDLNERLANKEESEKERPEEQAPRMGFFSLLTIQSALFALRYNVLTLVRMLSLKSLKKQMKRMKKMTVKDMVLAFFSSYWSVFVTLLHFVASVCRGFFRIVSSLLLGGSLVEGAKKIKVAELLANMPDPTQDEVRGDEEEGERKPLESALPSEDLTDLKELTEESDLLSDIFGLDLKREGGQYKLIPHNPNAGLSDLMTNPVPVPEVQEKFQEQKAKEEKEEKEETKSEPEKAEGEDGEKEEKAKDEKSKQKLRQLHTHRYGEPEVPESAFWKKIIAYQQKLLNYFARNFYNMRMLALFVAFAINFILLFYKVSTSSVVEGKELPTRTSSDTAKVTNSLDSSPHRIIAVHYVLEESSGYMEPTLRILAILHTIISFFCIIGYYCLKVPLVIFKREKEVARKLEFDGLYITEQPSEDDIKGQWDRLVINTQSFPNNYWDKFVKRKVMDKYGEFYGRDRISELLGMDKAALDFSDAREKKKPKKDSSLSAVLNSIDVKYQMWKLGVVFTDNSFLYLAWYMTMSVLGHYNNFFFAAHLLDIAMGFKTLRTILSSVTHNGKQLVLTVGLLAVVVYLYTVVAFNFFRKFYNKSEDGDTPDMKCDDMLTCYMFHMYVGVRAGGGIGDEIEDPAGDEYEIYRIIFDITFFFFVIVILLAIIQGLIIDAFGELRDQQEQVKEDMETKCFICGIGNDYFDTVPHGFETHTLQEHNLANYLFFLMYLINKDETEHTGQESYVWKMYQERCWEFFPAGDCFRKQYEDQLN

block of ERβ-activated RyR2 single channel currents (20 μM Ruthenium Red after ERβ (FIG. 1A)): blocked | RyR channel block (25 μM ruthenium red after ERβ (FIG. 10A, 11A)): complete channel block
Compound: N.N.N.N.N.N.N.N.N.N.N.N.N.N.[Cl-].[Cl-].[Cl-].[Cl-].[Cl-].[Cl-].[O-2].[O-2].[Ru+3].[Ru+3].[Ru+4] [Ruthenium Red]

Source: patent publication US20090075888A1, “Cardiovascular and Brain Cell Therapy Using Intracellular Ryanodine Receptor Modulation by the Estrogen Receptor Beta” (University of North Texas Health Science Center at Fort …, priority 2007, published 2009)
